Results as given in patent US8022225B2, “Triazole derivative” (Taisho Pharmaceutical Co., Ltd, priority 2004, dated 2011).

What was measured:
[1] = molecular target: T1, human Edg-1(S1P1) (Homo sapiens, UniProt P21453); experiment: Cell system binding test: inhibition of [3H]-S1P binding to Edg-1(S1P1) gene transferred HEK-293 cells; details: [3H]-S1P 10 nM
T1 construct: expressed in transfected cells; host or cells: HEK-293

[2] = molecular target: T1, human Edg-1(S1P1); experiment: Membrane system binding test: inhibition of [33P]-S1P binding to the membrane fraction of Edg-1(S1P1) gene transferred HEK-293 cells; details: test compound 10^-5 M; [33P]-S1P 0.1 nM; 1 hour at 30° C.; HEK-293 membrane fraction; read-out: Edg-1(S1P1) binding inhibition rate (membrane system binding test)
In short: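 Membranes from HEK-293 cells transfected with Edg-1(S1P1) incubated 1 h at 30 °C with 0.1 nM [^33P]-S1P and compound at 10^−5 M (0.1% DMSO), pH 7.4 buffer with fatty acid-free BSA. Filter-bound radioactivity counted; inhibition rate calculated against no-compound binding, with untransfected-cell background subtracted.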

[3] = test compound 10^-5 M, 1 hour, read-out: Edg-1(S1P1) binding inhibition rate (cell system binding test)

T1 sequence (P21453 whole entry): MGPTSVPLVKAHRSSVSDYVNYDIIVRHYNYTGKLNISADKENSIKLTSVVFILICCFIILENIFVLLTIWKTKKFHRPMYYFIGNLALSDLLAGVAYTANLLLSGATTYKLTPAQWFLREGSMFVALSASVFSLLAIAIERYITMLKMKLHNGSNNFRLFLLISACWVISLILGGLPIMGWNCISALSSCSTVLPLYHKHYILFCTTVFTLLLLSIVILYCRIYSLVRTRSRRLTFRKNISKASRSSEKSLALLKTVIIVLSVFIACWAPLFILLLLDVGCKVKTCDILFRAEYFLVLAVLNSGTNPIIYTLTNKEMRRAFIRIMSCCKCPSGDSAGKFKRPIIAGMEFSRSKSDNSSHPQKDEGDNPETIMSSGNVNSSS

SMILES: CCn1c([C@@H](C)NS(=O)(=O)c2ccc(Cl)cc2)nnc1S(C)(=O)=O [Compound 182, 4-Chloro-N-{(1R)-1-[4-ethyl-5-(methylsulfonyl)-4H-1,2,4-triazol-3-yl]ethyl}benzenesulfonamide]
- inhibition at 10 µM ([1]; 10 μM compound, read-out: Cell system binding test % inhibition (10 μM)): 53.7%
- melting point: 129 to 130 °C

SMILES: CCn1c(OC(C)C)nnc1[C@@H](C)NS(=O)(=O)c1ccc(C)c(C)c1 [Compound 462]
- inhibition at 10 µM [1, 3]: 83.5%
- inhibition at 10 µM [2]: 92.1%

SMILES: CCn1c(OC(C)C)nnc1[C@@H](C)NS(=O)(=O)c1ccc(C)c(F)c1 [Compound 463]
- inhibition at 10 µM [1, 3]: 88.7%
- inhibition at 10 µM [2]: 97.2%

SMILES: CCn1c(OC(C)C)nnc1[C@@H](C)NS(=O)(=O)c1ccc2ccccc2c1 [Compound 464]
- inhibition at 10 µM [1, 3]: 99.6%
- inhibition at 10 µM [2]: 98.3%

SMILES: CCn1c(OC(C)C)nnc1[C@@H](C)NS(=O)(=O)c1ccc(F)c(F)c1 [Compound 465]
- inhibition at 10 µM [1, 3]: 97.9%
- inhibition at 10 µM [2]: 88%

SMILES: CCn1c(OC(C)C)nnc1[C@@H](C)NS(=O)(=O)c1cccc(OC(F)F)c1 [Compound 466]
- inhibition at 10 µM [1, 3]: 99.3%
- inhibition at 10 µM [2]: 88.8%

SMILES: CCn1c(OC(C)C)nnc1[C@@H](C)NS(=O)(=O)c1ccc(Br)c(Br)c1 [Compound 467]
- inhibition at 10 µM [1, 3]: 100%
- inhibition at 10 µM [2]: 98.6%

SMILES: CCn1c(OC(C)C)nnc1[C@@H](C)NS(=O)(=O)c1cccc(C(F)(F)F)c1 [Compound 468]
- inhibition at 10 µM [1, 3]: 96.9%
- inhibition at 10 µM [2]: 75.8%

SMILES: CCn1c(OC(C)C)nnc1[C@@H](C)NS(=O)(=O)c1cccc(OC(F)(F)F)c1 [Compound 469]
- inhibition at 10 µM [1, 3]: 95.9%
- inhibition at 10 µM [2]: 83.9%

SMILES: CCn1c(OC(C)C)nnc1[C@@H](C)NS(=O)(=O)c1cccc(C)c1 [Compound 470]
- inhibition at 10 µM [1, 3]: 91.6%
- inhibition at 10 µM [2]: 80.8%

SMILES: CCn1c(OC(C)C)nnc1[C@@H](C)NS(=O)(=O)c1cccc(Cl)c1C [Compound 471]
- inhibition at 10 µM [1, 3]: 96.5%
- inhibition at 10 µM [2]: 91%

SMILES: CCn1c(OC(C)C)nnc1[C@@H](C)NS(=O)(=O)c1ccc2nsnc2c1 [Compound 472]
- inhibition at 10 µM [1, 3]: 102%
- inhibition at 10 µM [2]: 94.4%

SMILES: CCn1c(OC(C)C)nnc1[C@@H](C)NS(=O)(=O)c1ccc(C(F)(F)F)cc1 [Compound 473]
- inhibition at 10 µM [1, 3]: 95.1%
- inhibition at 10 µM [2]: 91.7%

SMILES: CCn1c(OC(C)C)nnc1[C@@H](C)NS(=O)(=O)c1cc(F)cc(F)c1 [Compound 474]
- inhibition at 10 µM [1, 3]: 93%
- inhibition at 10 µM [2]: 79%

SMILES: CCn1c(OC(C)C)nnc1[C@@H](C)NS(=O)(=O)c1cc(Cl)c(Cl)s1 [Compound 475]
- inhibition at 10 µM [1, 3]: 97.9%
- inhibition at 10 µM [2]: 86.4%

SMILES: CCn1c(OC(C)C)nnc1[C@@H](C)NS(=O)(=O)c1ccc(I)cc1 [Compound 476]
- inhibition at 10 µM [1, 3]: 100%
- inhibition at 10 µM [2]: 86.1%

SMILES: CCn1c(OC(C)C)nnc1[C@@H](C)NS(=O)(=O)c1ccc(F)cc1 [Compound 477]
- inhibition at 10 µM [1, 3]: 92%
- inhibition at 10 µM [2]: 77.1%

SMILES: CCn1c(OC(C)C)nnc1[C@@H](C)NS(=O)(=O)c1ccc(Br)c(C(F)(F)F)c1 [Compound 478]
- inhibition at 10 µM [1, 3]: 104%
- inhibition at 10 µM [2]: 86%

SMILES: CCn1c(OC(C)C)nnc1[C@@H](C)NS(=O)(=O)c1cccc(Cl)c1 [Compound 479]
- inhibition at 10 µM [1, 3]: 93.3%
- inhibition at 10 µM [2]: 83%

SMILES: CCc1ccc(S(=O)(=O)N[C@H](C)c2nnc(OC(C)C)n2CC)cc1 [Compound 480]
- inhibition at 10 µM [1, 3]: 93.1%
- inhibition at 10 µM [2]: 77.4%

SMILES: CCn1c(OC(C)C)nnc1[C@@H](C)NS(=O)(=O)c1cccc(OC)c1 [Compound 481]
- inhibition at 10 µM [1, 3]: 96.3%
- inhibition at 10 µM [2]: 64.9%

SMILES: CCn1c(OC(C)C)nnc1[C@@H](C)NS(=O)(=O)c1cc(F)c(Br)cc1F [Compound 482]
- inhibition at 10 µM [1, 3]: 90.7%
- inhibition at 10 µM [2]: 72.3%

SMILES: CCn1c(OCC(F)(F)F)nnc1[C@@H](C)NS(=O)(=O)c1ccc(Br)s1 [Compound 484]
- inhibition at 10 µM [1, 3]: 102%
- inhibition at 10 µM [2]: 63.2%

SMILES: CCn1c(OCC(F)(F)F)nnc1[C@@H](C)NS(=O)(=O)c1ccc(Cl)c(Cl)c1 [Compound 485]
- inhibition at 10 µM [1, 3]: 103%
- inhibition at 10 µM [2]: 95.5%

SMILES: CCn1c(OCC(F)(F)F)nnc1[C@@H](C)NS(=O)(=O)c1ccc(C)c(Cl)c1 [Compound 486]
- inhibition at 10 µM [1, 3]: 99.5%
- inhibition at 10 µM [2]: 93.8%

SMILES: CCn1c(OCC(F)(F)F)nnc1[C@@H](C)NS(=O)(=O)c1ccc(Br)c(F)c1 [Compound 487]
- inhibition at 10 µM [1, 3]: 99.6%
- inhibition at 10 µM [2]: 90.4%

SMILES: CCn1c(OCC(F)(F)F)nnc1[C@@H](C)NS(=O)(=O)c1ccc(F)c(Cl)c1 [Compound 488]
- inhibition at 10 µM [1, 3]: 102%
- inhibition at 10 µM [2]: 91.4%

SMILES: CCn1c(OCC(F)(F)F)nnc1[C@@H](C)NS(=O)(=O)c1ccc(Br)c(C)c1 [Compound 489]
- inhibition at 10 µM [1, 3]: 103%
- inhibition at 10 µM [2]: 98.4%

SMILES: CCn1c(OCC(F)(F)F)nnc1[C@@H](C)NS(=O)(=O)c1cc(F)c(F)c(F)c1 [Compound 490]
- inhibition at 10 µM [1, 3]: 101%
- inhibition at 10 µM [2]: 88.9%

SMILES: CCn1c(OCC(F)(F)F)nnc1[C@@H](C)NS(=O)(=O)c1cccc(Br)c1 [Compound 491]
- inhibition at 10 µM [1, 3]: 88.9%
- inhibition at 10 µM [2]: 75.7%

SMILES: CCn1c(OCC(F)(F)F)nnc1[C@@H](C)NS(=O)(=O)c1ccc(Br)cc1 [Compound 492]
- inhibition at 10 µM [1, 3]: 104%
- inhibition at 10 µM [2]: 87.9%

SMILES: CCn1c(OCC(F)(F)F)nnc1[C@@H](C)NS(=O)(=O)c1ccc(C)c(C)c1 [Compound 493]
- inhibition at 10 µM [1, 3]: 105%
- inhibition at 10 µM [2]: 88.3%

SMILES: CCn1c(OCC(F)(F)F)nnc1[C@@H](C)NS(=O)(=O)c1ccc(C)c(F)c1 [Compound 494]
- inhibition at 10 µM [1, 3]: 102%
- inhibition at 10 µM [2]: 87.1%

SMILES: CCn1c(OCC(F)(F)F)nnc1[C@@H](C)NS(=O)(=O)c1ccc2ccccc2c1 [Compound 495]
- inhibition at 10 µM [1, 3]: 104%
- inhibition at 10 µM [2]: 89.9%

SMILES: CCn1c(OCC(F)(F)F)nnc1[C@@H](C)NS(=O)(=O)c1ccc(F)c(F)c1 [Compound 496]
- inhibition at 10 µM [1, 3]: 103%
- inhibition at 10 µM [2]: 75.7%

SMILES: CCn1c(OCC(F)(F)F)nnc1[C@@H](C)NS(=O)(=O)c1cccc(OC(F)F)c1 [Compound 497]
- inhibition at 10 µM [1, 3]: 102%
- inhibition at 10 µM [2]: 66.5%

SMILES: CCn1c(OCC(F)(F)F)nnc1[C@@H](C)NS(=O)(=O)c1cccc(Cl)c1C [Compound 498]
- inhibition at 10 µM [1, 3]: 104%
- inhibition at 10 µM [2]: 88.5%

SMILES: CCn1c(OCC(F)(F)F)nnc1[C@@H](C)NS(=O)(=O)c1ccc2nsnc2c1 [Compound 499]
- inhibition at 10 µM [1, 3]: 107%
- inhibition at 10 µM [2]: 89.1%

SMILES: CCn1c(OCC(F)(F)F)nnc1[C@@H](C)NS(=O)(=O)c1ccc(C(F)(F)F)cc1 [Compound 500]
- inhibition at 10 µM [1, 3]: 103%
- inhibition at 10 µM [2]: 81.6%

SMILES: CCn1c(OCC(F)(F)F)nnc1[C@@H](C)NS(=O)(=O)c1cc(F)cc(F)c1 [Compound 501]
- inhibition at 10 µM [1, 3]: 102%
- inhibition at 10 µM [2]: 55.4%

SMILES: CCn1c(OCC(F)(F)F)nnc1[C@@H](C)NS(=O)(=O)c1ccc(Br)c(Br)c1 [Compound 502]
- inhibition at 10 µM [1, 3]: 108%
- inhibition at 10 µM [2]: 86.3%

SMILES: CCn1c(OCC(F)(F)F)nnc1[C@@H](C)NS(=O)(=O)c1cccc(C(F)(F)F)c1 [Compound 503]
- inhibition at 10 µM [1, 3]: 104%
- inhibition at 10 µM [2]: 73.3%

SMILES: CCn1c(OCC(F)(F)F)nnc1[C@@H](C)NS(=O)(=O)c1cccc(OC(F)(F)F)c1 [Compound 504]
- inhibition at 10 µM [1, 3]: 96.6%
- inhibition at 10 µM [2]: 54%

SMILES: CCn1c(OCC(F)(F)F)nnc1[C@@H](C)NS(=O)(=O)c1cccc(C)c1 [Compound 505]
- inhibition at 10 µM [1, 3]: 103%
- inhibition at 10 µM [2]: 74.4%

SMILES: CCn1c(OCC(F)(F)F)nnc1[C@@H](C)NS(=O)(=O)c1cc(Cl)c(Cl)s1 [Compound 510]
- inhibition at 10 µM [1, 3]: 106%
- inhibition at 10 µM [2]: 70.9%

SMILES: CCn1c(OCC(F)(F)F)nnc1[C@@H](C)NS(=O)(=O)c1ccc(I)cc1 [Compound 511]
- inhibition at 10 µM [1, 3]: 99%
- inhibition at 10 µM [2]: 85.4%

SMILES: CCn1c(OCC(F)(F)F)nnc1[C@@H](C)NS(=O)(=O)c1ccc(F)cc1 [Compound 512]
- inhibition at 10 µM [1, 3]: 105%
- inhibition at 10 µM [2]: 71.5%

SMILES: CCn1c(OCC(F)(F)F)nnc1[C@@H](C)NS(=O)(=O)c1ccc(Br)c(C(F)(F)F)c1 [Compound 513]
- inhibition at 10 µM [1, 3]: 98.8%
- inhibition at 10 µM [2]: 55.2%

SMILES: CCn1c(OCC(F)(F)F)nnc1[C@@H](C)NS(=O)(=O)c1cccc(Cl)c1 [Compound 514]
- inhibition at 10 µM [1, 3]: 98.4%
- inhibition at 10 µM [2]: 86.7%

SMILES: CCc1ccc(S(=O)(=O)N[C@H](C)c2nnc(OCC(F)(F)F)n2CC)cc1 [Compound 515]
- inhibition at 10 µM [1, 3]: 103%
- inhibition at 10 µM [2]: 62.4%

SMILES: CCn1c(OCC(F)(F)F)nnc1[C@@H](C)NS(=O)(=O)c1cccc(OC)c1 [Compound 516]
- inhibition at 10 µM [1, 3]: 101%
- inhibition at 10 µM [2]: 61.9%

SMILES: CCn1c(OCC(F)(F)F)nnc1[C@@H](C)NS(=O)(=O)c1cc(F)c(Br)cc1F [Compound 517]
- inhibition at 10 µM [1, 3]: 93.7%
- inhibition at 10 µM [2]: 42.7%

SMILES: CCCn1c(OC)nnc1[C@@H](C)NS(=O)(=O)c1ccc(Cl)cc1 [Compound 541]
- inhibition at 10 µM [1, 3]: 97.1%
- inhibition at 10 µM [2]: 75.8%

SMILES: COc1nnc([C@@H](C)NS(=O)(=O)c2ccc(Cl)cc2)n1C(C)C [Compound 542]
- inhibition at 10 µM [1, 3]: 99.9%
- inhibition at 10 µM [2]: 92.3%

SMILES: COc1nnc([C@@H](C)NS(=O)(=O)c2ccc(Cl)cc2)n1C1CC1 [Compound 543]
- inhibition at 10 µM [1, 3]: 93.1%
- inhibition at 10 µM [2]: 101%

SMILES: CCCCn1c(OC)nnc1[C@@H](C)NS(=O)(=O)c1ccc(Cl)cc1 [Compound 544]
- inhibition at 10 µM [1, 3]: 47.5%
- inhibition at 10 µM [2]: 100%
